# Results taken from patent US8778876B2, “Small-molecule inhibitors of Dengue and West Nile virus proteases” (The Board of Regents of the University of Texas System, priority 2011, dated 2014).
# “Also recorded” adds a separate entry of the source. Read-outs that look alike come from different tables or passages of the source.
# Legend:
# physchem = details: pH 9, aqueous with cosolvent or surfactant or cyclodextrin, kinetic from dmso stock
# WNV NS2B-NS3pro = WNV NS2B-NS3pro (West Nile virus, UniProt P06935); assay: Steady-state kinetics of inhibitors of WNV NS2B-NS3pro; type: biochemical
# DEN2V NS2B-NS3pro [1] = target: T1, DEN2V NS2B-NS3pro (Dengue virus type 2, UniProt Q91H74); assay: Steady-state kinetics of inhibitors of DEN2V NS2B-NS3pro (Boc-GRR-AMC substrate, Dynafit); type: biochemical, Dengue 2 virus; details: for Mechanism: HTS-identified hits
# DENV; WNV protease = type: biochemical, Dengue virus; West Nile virus
# [2] = target: T2, Bovine pancreatic trypsin (Bos taurus, UniProt P00760); assay: biochemical; type: biochemical
# T2 construct: purchased Sigma Aldrich; host or cells: bovine pancreas
# T2 sequence (P00760 24-246): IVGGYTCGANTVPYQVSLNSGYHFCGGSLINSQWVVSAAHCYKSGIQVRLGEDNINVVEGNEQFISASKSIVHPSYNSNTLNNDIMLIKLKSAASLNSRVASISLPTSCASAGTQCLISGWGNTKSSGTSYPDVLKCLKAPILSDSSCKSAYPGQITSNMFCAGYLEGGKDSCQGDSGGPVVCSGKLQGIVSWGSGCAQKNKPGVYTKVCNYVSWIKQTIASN
# DEN2V NS2B-NS3pro [3] = target: T1, DEN2V NS2B-NS3pro; assay: Preliminary DEN2V NS2B-NS3pro inhibition assay; type: biochemical, Dengue 2 virus; details: 100 nM protease, 100 μM Boc-GRR-AMC, 30 min at 25° C.; aprotinin at 100 μM
# [4] = Table 2, WNV NS2B-NS3pro, read-out: Ki1
# [5] = Table 2, WNV NS2B-NS3pro, read-out: Ki2
# [6] = Table 1, DEN2V NS2B-NS3pro, read-out: Ki1
# [7] = Table 1, DEN2V NS2B-NS3pro, read-out: Ki2
# [8] = Ki1 (from biochemical protease inihibition experiments) West Nile virus NS2B-NS
# [9] = Ki1 (from biochemical protease inihibition experiments) Dengue 2 virus NS2B-NS3
# [10] = DEN2V NS2B-NS3 Ki1, second series analogs
# [11] = DEN2V NS2B-NS3 Ki2, second series analogs
# T1 sequence (Q91H74 entry or part of it, added parts left off): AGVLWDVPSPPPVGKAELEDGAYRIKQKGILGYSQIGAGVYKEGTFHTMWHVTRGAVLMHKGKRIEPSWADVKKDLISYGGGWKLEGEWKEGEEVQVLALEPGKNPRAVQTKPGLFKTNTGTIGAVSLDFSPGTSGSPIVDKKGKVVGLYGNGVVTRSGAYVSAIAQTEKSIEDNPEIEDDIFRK
# T1 sequence (Q91H74 entry or part of it partner, added parts left off): as the sequence (Q91H74 entry or part of it, added parts left off) above
# WNV NS2B-NS3pro, sequence (P06935 1502-1679 limits assumed): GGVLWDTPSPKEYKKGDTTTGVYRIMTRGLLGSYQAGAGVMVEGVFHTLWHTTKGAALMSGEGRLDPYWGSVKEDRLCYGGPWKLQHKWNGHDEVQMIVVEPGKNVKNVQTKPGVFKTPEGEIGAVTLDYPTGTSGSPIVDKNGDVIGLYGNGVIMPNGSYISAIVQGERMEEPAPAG
# WNV NS2B-NS3pro, sequence (P06935 1424-1463 partner limits assumed): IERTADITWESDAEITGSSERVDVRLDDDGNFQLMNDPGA
compound,measurement,setting,value
Cc1ccc2c(c1)C(=O)c1ccccc1C2=O [Compound 6A28],solubility,physchem,< 10 µM
"Cc1cc(C(C)(C)CC(C)(C)C)ccc1OCCOCC[N+](C)(C)Cc1ccccc1.[Cl-] [MS22, Methylbenzethonium chloride, reference compound]",Mechanism,"WNV NS2B-NS3pro; Table 2, WNV NS2B-NS3pro",Mixed
same,Ki,WNV NS2B-NS3pro; [4],141 ± 20 µM
same,Ki,WNV NS2B-NS3pro; [5],307 ± 80 µM
same,Mechanism,"DEN2V NS2B-NS3pro [1]; Table 1, DEN2V NS2B-NS3pro",Mixed
same,Ki,DEN2V NS2B-NS3pro [1]; [6],322 ± 81 µM
same,Ki,DEN2V NS2B-NS3pro [1]; [7],160 ± 39 µM
O=[N+]([O-])c1ccc(/N=N/c2ccc(O)c3cc(O)ccc23)c([N+](=O)[O-])c1 [Compound 298],Ki,WNV NS2B-NS3pro; WNpro Ki1,4 µM
same,Ki,WNV NS2B-NS3pro; WNpro Ki2,2 µM
same,Ki,DEN2V NS2B-NS3pro [1]; Denpro Ki1,40 µM
same,Ki,DEN2V NS2B-NS3pro [1]; Denpro Ki2,4 µM
same,Protease inhibited in Knock-down,DENV; WNV protease,DENV; WNV
Cc1ccc(O)c(/N=N/c2c(O)cc(O)c3ccccc23)c1 [Compound 301],Protease inhibited in Knock-down,DENV; WNV protease,DENV; WNV
Oc1ccc2c(/N=N/c3ccc4c(c3)OCO4)ccc(O)c2c1 [Compound 296],Ki,WNV NS2B-NS3pro; WNpro Ki2,116 µM
same,Ki,DEN2V NS2B-NS3pro [1]; Denpro Ki1,215 µM
same,Ki,DEN2V NS2B-NS3pro [1]; Denpro Ki2,62 µM
same,Protease inhibited in Knock-down,DENV; WNV protease,DENV; WNV
Nc1ccc(N)c2c1C(=O)c1c(N)ccc(N)c1C2=O [Compound 6A42],Mechanism (trypsin inhibition),[2],mixed noncompetitive trypsin inhibitors; also recorded: inhibited both the DEN2V NS2B-NS3 protease and trypsin
same,Ki,[2]; Ki1 trypsin,60 ± 13 µM
same,Ki,[2]; Ki2 trypsin,167 ± 20 µM
same,Inhibition of DEN2V NS2B-NS3pro in the preliminary inhibition assay,DEN2V NS2B-NS3pro [3],significant inhibition
CN(C)c1ccc2nc3ccc(=O)cc-3sc2c1 [Compound 9A4],Ki,WNV NS2B-NS3pro; [8],431 µM
same,Ki,DEN2V NS2B-NS3pro [1]; [9],359 µM
O=c1[nH]c2cc([N+](=O)[O-])c([N+](=O)[O-])cc2[nH]c1=O [Compound 6A29],solubility,physchem,< 10 µM
Oc1ccc2cc(/N=N/c3ccc4c(c3)OCO4)c(O)cc2c1 [Compound 292],Protease inhibited in Knock-down,DENV; WNV protease,WNV
O=[N+]([O-])c1cc(/N=N/c2ccc(O)c3cc(O)ccc23)ccc1O [Compound 297],Ki,WNV NS2B-NS3pro; WNpro Ki2,61 µM
same,Ki,DEN2V NS2B-NS3pro [1]; Denpro Ki2,85 µM
same,Protease inhibited in Knock-down,DENV; WNV protease,DENV; WNV
O=[N+]([O-])c1cc([N+](=O)[O-])c2ccccc2c1[O-].[Na+] [Compound 6A40],solubility,physchem,< 10 µM
COc1ccc(N)c2c1C(=O)c1ccccc1C2=O [Compound 6A46],solubility,physchem,> 10 µM
O=[N+]([O-])c1ccc(/N=N/c2c(O)cc(O)c3ccccc23)c(O)c1 [Compound 302],Protease inhibited in Knock-down,DENV; WNV protease,DENV; WNV
CN/N=C1/c2ccccc2C(=O)c2c(O)ccc(O)c21 [Compound 6A48],solubility,physchem,> 10 µM
O=[N+]([O-])c1ccc(/N=N/c2ccc3cc(O)c(O)cc3c2)c(O)c1 [Compound 300],Ki,WNV NS2B-NS3pro; WNpro Ki1,3 µM
same,Ki,WNV NS2B-NS3pro; WNpro Ki2,2 µM
same,Ki,DEN2V NS2B-NS3pro [1]; Denpro Ki1,81 µM
same,Ki,DEN2V NS2B-NS3pro [1]; Denpro Ki2,5 µM
same,Protease inhibited in Knock-down,DENV; WNV protease,DENV; WNV
O=C1c2cccc(O)c2C(=O)c2cccc(O)c21 [Compound 6A30],solubility,physchem,< 10 µM
Nc1cccc2c1C(=O)c1ccccc1C2=O [Compound 6A25],solubility,physchem,< 10 µM
O=c1ccc2[n+]([O-])c3ccc(O)cc3oc-2c1 [Compound 9A3],Ki,WNV NS2B-NS3pro; [8],72 µM
same,Ki,DEN2V NS2B-NS3pro [1]; [9],82 µM
Nc1ccc2c(c1[N+](=O)[O-])C(=O)c1ccccc1C2=O [Compound 6A35],solubility,physchem,< 10 µM
Nc1ccc2c(c1)C(=O)c1ccccc1C2=O [Compound 6A27],solubility,physchem,< 10 µM
CCN(CC)c1ccc2nc3c4ccccc4c(=O)cc-3oc2c1 [Compound 9A6],Ki,WNV NS2B-NS3pro; [8],47 µM
same,Ki,DEN2V NS2B-NS3pro [1]; [9],53 µM
Oc1cc2ccc(/N=N/c3ccc4c(c3)OCO4)cc2cc1O [Compound 290],Ki,WNV NS2B-NS3pro; WNpro Ki2,< 6 µM
same,Ki,DEN2V NS2B-NS3pro [1]; Denpro Ki2,< 8.5 µM
same,Protease inhibited in Knock-down,DENV; WNV protease,DENV; WNV
"CC[C@H](C)[C@H]1O[C@]2(CC[C@@H]1C)C[C@@H]1C[C@@H](C/C=C(\C)[C@@H](O[C@H]3C[C@H](OC)[C@@H](O[C@H]4C[C@H](OC)[C@@H](O)[C@H](C)O4)[C@H](C)O3)[C@@H](C)/C=C/C=C3\CO[C@@H]4[C@H](O)C(C)=C[C@@H](C(=O)O1)[C@]34O)O2 [MS21, Ivermectin, reference compound]",Mechanism,"WNV NS2B-NS3pro; Table 2, WNV NS2B-NS3pro",Mixed
same,Ki,WNV NS2B-NS3pro; [4],55 ± 18 µM
same,Ki,WNV NS2B-NS3pro; [5],16 ± 4 µM
same,Mechanism,"DEN2V NS2B-NS3pro [1]; Table 1, DEN2V NS2B-NS3pro",Mixed
same,Ki,DEN2V NS2B-NS3pro [1]; [6],79 ± 21 µM
same,Ki,DEN2V NS2B-NS3pro [1]; [7],35 ± 4 µM
aprotinin [reference compound],Inhibition of DEN2V NS2B-NS3pro in the preliminary inhibition assay,DEN2V NS2B-NS3pro [3],fluorescence levels that were similar to that of the “substrate alone” background control
O=[N+]([O-])c1cc(/N=N/c2ccc3cc(O)c(O)cc3c2)ccc1O [Compound 293],Ki,WNV NS2B-NS3pro; WNpro Ki2,20 µM
same,Ki,DEN2V NS2B-NS3pro [1]; Denpro Ki1,432 µM
same,Ki,DEN2V NS2B-NS3pro [1]; Denpro Ki2,29 µM
same,Protease inhibited in Knock-down,DENV; WNV protease,DENV
O=[N+]([O-])c1ccc(OP(=O)([O-])Oc2ccc([N+](=O)[O-])cc2)cc1.[Na+] [Compound 6A24],solubility,physchem,< 10 µM
O=[N+]([O-])c1ccc(/C=N/c2ccc(O)c3ccccc23)c([N+](=O)[O-])c1 [Compound 260],Ki,WNV NS2B-NS3pro; WNpro Ki1,14 µM
same,Ki,WNV NS2B-NS3pro; WNpro Ki2,5 µM
same,Ki,DEN2V NS2B-NS3pro [1]; Denpro Ki1,52 µM
same,Ki,DEN2V NS2B-NS3pro [1]; Denpro Ki2,5 µM
same,Protease inhibited in Knock-down,DENV; WNV protease,DENV; WNV
O=C1c2ccc(O)cc2C(=O)c2c1ccc(O)c2O [Compound 6A47],Mechanism (trypsin inhibition),[2],mixed noncompetitive trypsin inhibitors; also recorded: inhibited both the DEN2V NS2B-NS3 protease and trypsin
same,Ki,[2]; Ki1 trypsin,4 µM
same,Ki,[2]; read-out: Ki2 trypsin,25 ± 3 µM
same,Inhibition of DEN2V NS2B-NS3pro in the preliminary inhibition assay,DEN2V NS2B-NS3pro [3],significant inhibition
same,solubility,physchem,> 10 µM
Nc1ccc(O)c2ccccc12 [Compound 6A51],solubility,physchem,> 10 µM
Oc1ccc2cc3ccc(O)cc3c(O)c2c1 [Compound 6A60],Trypsin Mechanism,[2],did not inhibit trypsin cleavage activity; also recorded: No inhibition
same,Ki,WNV NS2B-NS3pro; [8],11 µM
same,Ki,DEN2V NS2B-NS3pro [1]; [10],7 ± 5 µM
same,Ki,DEN2V NS2B-NS3pro [1]; [11],3 ± 1 µM
same,Ki,DEN2V NS2B-NS3pro [1]; [9],7 µM
same,DEN2V NS2B-NS3 Ki1,DEN2V NS2B-NS3pro [1]; second series analogs,lowest Ki1 of all anthracene-based analogs
same,DEN2V NS2B-NS3 Mechanism,DEN2V NS2B-NS3pro [1]; second series analogs,Mixed
same,solubility,physchem,> 10 µM
O=Cc1ccc2c(c1)C(=O)c1ccccc1C2=O [Compound 6A50],solubility,physchem,> 10 µM
Cc1cccc2c1C(=O)c1cccc([N+](=O)[O-])c1C2=O [Compound 6A41],solubility,physchem,< 10 µM
O=C1c2ccc(O)c(O)c2C(=O)c2c(O)ccc(O)c21 [Compound 6A61],Trypsin Mechanism,[2],did not inhibit trypsin; also recorded: No inhibition
same,Ki,WNV NS2B-NS3pro; [8],31 µM
same,Ki,DEN2V NS2B-NS3pro [1]; [10],72 ± 15 µM
same,Ki,DEN2V NS2B-NS3pro [1]; [11],10 ± 2 µM
same,Ki,DEN2V NS2B-NS3pro [1]; [9],72 µM
same,DEN2V NS2B-NS3 Mechanism,DEN2V NS2B-NS3pro [1]; second series analogs,Mixed
same,solubility,physchem,> 10 µM
"N=C(N)c1ccccc1 [Benzamidine, reference compound]",Mechanism (trypsin inhibition),[2],competitive trypsin inhibitors
O=C(Nc1ccc(O)c2ccccc12)c1ccc([N+](=O)[O-])cc1[N+](=O)[O-] [Compound 273],Ki,WNV NS2B-NS3pro; WNpro Ki1,< 169 µM
same,Ki,WNV NS2B-NS3pro; WNpro Ki2,< 186 µM
same,Ki,DEN2V NS2B-NS3pro [1]; Denpro Ki1,< 223 µM
same,Protease inhibited in Knock-down,DENV; WNV protease,DENV; WNV
Nc1c(Br)cc(O)c2c1C(=O)c1ccccc1C2=O [Compound 6A53],solubility,physchem,< 10 µM
"CC(=O)Oc1cc2c(cc1OC(C)=O)[C@@H]1c3ccc(OC(C)=O)c(OC(C)=O)c3OC[C@]1(OC(C)=O)C2 [MS5, Haematoxylin pentaacetate]",Mechanism,"WNV NS2B-NS3pro; Table 2, WNV NS2B-NS3pro",Mixed
same,Mechanism,"DEN2V NS2B-NS3pro [1]; Table 1, DEN2V NS2B-NS3pro",Mixed
same,Ki,DEN2V NS2B-NS3pro [1]; [6],16 ± 7 µM
same,Ki,DEN2V NS2B-NS3pro [1]; [7],5 ± 0.7 µM
same,Inhibition in single-point knock-down assays with either protease,DENV; WNV protease; compound incubated with cleavage buffer overnight (complete oxidation),no observable inhibition
"CO[C@H]1C[C@H](O[C@@H]2/C(C)=C/C[C@@H]3C[C@@H](C[C@]4(CC[C@H](C)[C@@H](C5CCCCC5)O4)O3)OC(=O)[C@@H]3C=C(C)/C(=N/O)[C@H]4OC/C(=C\C=C\[C@@H]2C)[C@]43O)O[C@@H](C)[C@@H]1O [MS24, Selamectin, reference compound]",Ki,"WNV NS2B-NS3pro; Ki1, Table 2, WNV NS2B-NS3pro",15 ± 9 µM
same,Ki,"WNV NS2B-NS3pro; Ki2, Table 2, WNV NS2B-NS3pro",28 ± 6 µM
same,Mechanism,"WNV NS2B-NS3pro; Table 2, WNV NS2B-NS3pro",Mixed
same,Ki,"DEN2V NS2B-NS3pro [1]; Ki1, Table 1, DEN2V NS2B-NS3pro",63 ± 18 µM
same,Ki,"DEN2V NS2B-NS3pro [1]; Ki2, Table 1, DEN2V NS2B-NS3pro",45 ± 8 µM
same,Mechanism,"DEN2V NS2B-NS3pro [1]; Table 1, DEN2V NS2B-NS3pro",Mixed
